Test results published in patent publication US20030124571A1, “Novel human septin and uses therefor” (The Government of the United States of America, priority 2000, published 2003).

Assays:
[1] = tested on: NRP-154 cells; experiment: Thymidine incorporation assay, NRP-154 cells; type: cell-based, rat; conditions: 24 hr treatment with 10 ng/ml TGF-β1
Procedure: (§1) M-NRP1 and NRP-154 cells were plated at 1×10^5 cells per well in 24 well plates and allowed to attach overnight. Incorporation of (^3H)-thymidine was measured by adding radioactivity for 3 hours, 24 hours after addition of control or 10 ng/ml TGF-β1. Plates were counted on a Packard Top Count. Parallel plates (e.g., those treated in an identical manner) were harvested by trypinization for counting in a Coulter Counter.

[2] = tested on: M-NRP1 cells; experiment: Thymidine incorporation assay, M-NRP1 cells; type: cell-based, rat; conditions: 24 hr treatment with 10 ng/ml TGF-β1
Procedure: as §1

[3] = tested on: M-NRP1 cells; experiment: Apoptosis (DNA laddering, morphology), M-NRP1 cells; type: cell-based, rat; conditions: 24 hours; 10 ng/ml TGF-β, okadaic acid 30 nM, staurosporine 2 nM
Procedure: (§2) 2×10^5 M-NRP1 cells or NRP-154 cells were plated in 6-well dishes. After 24 hours, 2 ml DMEM/F12 containing 15 mM HEPES, 1% calf serum, and 0.1 μM dexamethasone were added to the plates. The cells were cultured at 37° C. for 24 hours and then detached by trypsinization.
(§3) Internucleosomal DNA ladders were detected with a modification (described below) of TACS apoptotic DNA ladder kit (Trevigen, Githersburg, Md.). Briefly, the detached cells were centrifuged at 600×g to form cell pellets. The cell pellets were then resuspended in 25 μl PBS and lysed by the addition of 25 μl of lysis buffer. DNA was purified from the mixture as directed by Trevigen.
(§4) The nicked ends of the DNA were ^32P-labeled by incubating 1 μg of DNA with 2.5 units of Klenow fragment of DNA Poll in the presence of 0.5 μCi of (α-^32P) dCTP (3 Ci/mmol, Dupont NEN, Boston, Mass.) for 30 min at room temperature in a 10 μl reaction volume containing 5 mM MgCl2 and 10 mM Tris-HCl (pH 7.5). One third of the labeled DNA was electrophoresed through 1.8% agarose-1×TAE at 70 V for 2 hours. Gels were dried and exposed to X-Omat AR (Kodak, Rochester, N.Y.) for about 1 hour.
Staurosporine and okadaic acid (Upstate Biotechnology Incorporated, Lake Placid, N.Y.) were dissolved in dimethyl sulfoxide (DMSO) and diluted to a final concentration of 2 nM and […], respectively, in 0.01% DMSO.
(§5) NRP-154 and M-NRP1 cells were treated with a control (i.e., the identical solution without the agent of interest) or with 10 ng/ml TGF-β, okadaic acid (30 nM) or staurosporine (2 nM) for 24 hours. Apoptosis was determined by DNA laddering, essentially as described in Example VA, above.

[4] = tested on: cyclin A promoter construct (pCAL2) in NRP-154 cells; experiment: Cyclin A promoter construct pCAL2-luc luciferase assay, NRP-154 cells; type: cell-based, rat; conditions: 24 hours of treatment with 10 ng/ml TGF-β
Procedure: (§6) M-NRP1 and NRP-154 cells were cultured in 10% fetal bovine serum as described by Chaudhary et al., (1998) J. Biol. Chem. 273: 17708-17712) and exposed to 10 ng/ml TGF-β1 for 24 hours.
(§7) M-NRP1 cells were transiently transfected with pCal-luc (a pCAL2 reporter construct described by Keeton et al., (1991) J. Biol. Chem. 266: 23048-23052) using the Lipofectamine (Gibco BRL Life Technologies, Gaithersburg, Md.) transfection reagent.
(§8) Activity of the transiently transfected cyclin A promoter construct, pCal2-luc, was assessed by a luciferase assay and measured using a luminometer. The basal activity (e.g., without TGF-β treatment) of pCAL2 was similar in MNRP-1 and NRP-154 cells.

[5] = tested on: cyclin A promoter construct (pCAL2) in M-NRP1 cells; experiment: Cyclin A promoter construct pCAL2-luc luciferase assay, M-NRP1 cells; type: cell-based, rat; conditions: 24 hours of exposure to 10 ng/ml TGF-β
Procedure: as §6, §7, §8

[6] = tested on: NRP-154 cells; experiment: TUNEL assay, NRP-154 cells; type: cell-based, rat; conditions: 10 ng/ml TGF-β, 24 hours
Procedure: (§9) TUNEL assays were performed using the TACS In Situ Apoptosis Detection Kit (Trevigen). Briefly, NRP-154 and M-NRP1 cells were plated at 8×10^4 cells/ml in a 96 well plate and allowed to attach overnight. Cells were then treated with either 10 ng/ml TGF-β (R&D Systems, Inc., Minneapolis, Minn.), or control (i.e., the identical solution without TGF-β) for 24 hours, fixed with formaldehyde and analyzed for stained nuclei according to the manufacturer's instructions.

[7] = tested on: M-NRP1 cells; experiment: TUNEL assay, M-NRP1 cells; type: cell-based, rat; conditions: 10 ng/ml TGF-β, 24 hours
Procedure: as §9

[8] = tested on: caspase 3 in NRP-154 cells; experiment: Caspase 3 fluorescent activity assay, NRP-154 cells; type: cell-based, rat; conditions: 10 ng/ml TGF-β 24 hours
Procedure: Cells were seeded to 50% confluence in six-well plates in media containing 10% fetal calf serum overnight. Following 24 hours after transfection, cells media was changed to contain 1% fetal calf serum with or without 10 ng/ml TGF-β for additional 24 hours. Cells were treated with caspase 3 aldehyde inhibitor (Ac-DEVD-CHO) supplied with caspase 3 fluorescent activity kit according to the manufacturers' protocols (Pharmingen, San-Diego, Calif.). Results were read using FL-600 microplate fluorescence reader (Bio-Tek).

[9] = tested on: COS cells; experiment: TUNEL assay of transfected COS cells; type: cell-based, monkey; conditions: COS cells transfected with control vector, 10 ng/ml TGF-β for 24 hours
Procedure: COS cells were cultured as previously described (Section E, above). […] When these cells are transfected with ARTS and treatment with TGF-β they are induced to cell death.
COS cells were then transfected with control vector or wildtype ARTS, essentially as described above, and treated with 10 ng/ml TGF-β for 24 hours.
The apoptotic response of COS cells to TGF-β was assessed by a TUNEL assay ([…], now Roche, Indianapolis, Ind.) following the manufacturer's instructions.
COS cells were cultured and transfected, as described above, with equal concentrations of either pcDNA3 control vector, ARTS or M-ARTS-pcDNA3 using the Lipofectamine transfection reagent (Gibco BRL Life Technologies, Gaithersburg, Md.). The cells were treated with 1 o ng/ml TGF-β for 24 hours.
Apoptosis was examined in a TUNEL assay (Boehringer-Mannheim), according to the manufacturer's instructions.

[10] = tested on: NRP-154 cells; conditions: 48-72 hours exposure to 10 ng/ml TGF-β; cited from earlier work
[11] = tested on: NRP-154 cells; experiment: Apoptosis / cell death (DNA laddering, morphology), NRP-154 cells; type: cell-based, rat; conditions: 24 hours; okadaic acid 30 nM, staurosporine 2 nM
Procedure: as §2, §3
as §4, with “Gels were dried and exposed to X-Omat AR (Kodak, Rochester, N.Y.) for about 1 hour.” left out
as §5

Molecule	(3H)-thymidine uptake inhibited [1]	(3H)-thymidine uptake stimulated [2] [%]	apoptosis [3]	pCAL2 activity [4]	activity of the pCal-luc reporter [5]	TUNEL staining of nuclei [6]	TUNEL staining of nuclei [7]	caspase 3 activity [8]	apoptosis (TUNEL) [9]	cell death [10]	apoptosis [11]
TGF-β: recombinant human TGF-β1 (R&D Systems), transforming growth factor-β	greater than 80%	14	resistant to apoptosis	strong decrease	unaffected	strong TUNEL staining of apoptotic nuclei	most nuclei from M-NRP1 cells remained intact	caspase 3 was activated	did not undergo apoptosis	over 80%	–
C=C1[C@@H](O)[C@@H]2O[C@]3(CC[C@H](/C=C/[C@@H](C)[C@@H]4CC(C)=C[C@@]5(O[C@H](C[C@@](C)(O)C(=O)O)CC[C@H]5O)O4)O3)CC[C@H]2O[C@@H]1[C@@H](O)C[C@H](C)[C@H]1O[C@@]2(CCCCO2)CC[C@H]1C [okadaic acid]	–	–	remain sensitive to apoptosis	–	–	–	–	–	–	–	morphologically evident shrinkage, nuclear fragmentation, and loss of attachment characteristic of apoptosis
CN[C@@H]1C[C@H]2O[C@@](C)([C@@H]1OC)n1c3ccccc3c3c4c(c5c6ccccc6n2c5c31)C(=O)NC4 [staurosporine]	–	–	remain sensitive to apoptosis	–	–	–	–	–	–	–	morphologically evident shrinkage, nuclear fragmentation, and loss of attachment characteristic of apoptosis
